What is called IC50 is the concentration needed to halve the response being measured.

Structures can show the parent of a compound that is named as a salt. Where two headings read alike, the source gives them in different places.

Common to all, as to assay type: cell-based
In test [1] the test system is AR-V7 transcriptional activity. Nature of the test: MMTV-LUC luciferase reporter assay in 22RV1 cells, DHT− (screening and IC50). Conditions: for activity at 0.1 µM / activity at 1 µM / activity at 10 µM / IC50: Homo sapiens; for activity at 0.1 µM / activity at 1 µM / activity at 10 µM / IC50 / MMTV-LUC activity (%) DHT−: 22RV1 cells; for activity at 0.1 µM / activity at 1 µM / activity at 10 µM / MMTV-LUC activity (%) DHT−: no DHT, control = 100; for IC50: AR-V7 transcriptional activity; for potency as inhibitor of AR/AR-V7 transcriptional activity compared with ailanthone: in both CRPC 22RV1 cells and androgen-dependent LNCaP cells. A general note: In a reporter assay the amount or activity of a reporter protein is the signal.
Experimental: (§1) A library of antimalarial agents was screened using a luciferase reporter assay to measure changes in AR/AR-V7 transcriptional activity.
(§2) Screening was made primarily with 10 μM of each drug.

Test [2] deals with AR transcriptional activity. Nature of the test: MMTV-LUC luciferase reporter assay in 22RV1 cells, DHT+ (screening and IC50). Conditions: for activity at 0.1 µM / activity at 1 µM / activity at 10 µM / IC50: Homo sapiens; for activity at 0.1 µM / activity at 1 µM / activity at 10 µM / MMTV-LUC activity (%) DHT+: with DHT, control = 100; for IC50: AR transcriptional activity.
Experimental: as §1, §2
For test [3], the system named is 22RV1 cells. As to the kind of experiment: MTT cell growth inhibition assay, 22RV1. Conditions: Homo sapiens, read-out: IC50 (22RV1 cell growth).
Experimental: In brief, 22RV1 cells were seeded at a density of 1×10^4 cells/well into 96-well plates and treated with each drug at 6 concentrations ranging from 5 nM to 200 nM for 72 hours. Afterwards, an MTT dye solution and a solubilization solution/stop mix were added according to an MTT assay method, followed by reading absorbance at 570 nm to analyze cell viability and IC50.
The test system of test [4] is hormone-dependent AR transcriptional activity. As to the kind of experiment: MMTV-LUC reporter assay in LNCaP cells, hormone-dependent AR transcriptional activity. As to conditions: Homo sapiens, read-out: IC50 (nM) DHT+.

Consider `COC(=O)[C@@]12OC[C@]34[C@H]([C@@H](O)[C@@H]1O)[C@@]1(C)CC(=O)C(O)=C(C)[C@@H]1C[C@H]3OC(=O)[C@H](OC(=O)C=C(C)C)[C@@H]24` [Brusatol, brusatol], for which the activity at 0.1 µM in test [1] came out at 18.9 ± 20.2%; in test [2], 5.7 ± 0.6%. For the same compound, the activity at 1 µM in test [1] (1 uM) amounted to 14 ± 1.3%; in test [2] (1 uM) it was 4 ± 0.5%. Further, the values for the activity at 10 µM in test [1] (10 uM) and in test [2] (10 uM) were 10.3 ± 2.7% and 3.2 ± 0.2%, respectively. Further, the IC50 in test [1] came out at 14 nM; in test [2] it was 6.23 nM; in test [3] (22RV1 cells, MTT, 72 hours), 15.1 nM; in test [4] (LNCaP cells), 11.7 nM. For the same compound, the “potency as inhibitor of AR/AR-V7 transcriptional activity compared with ailanthone” value in test [1] is recorded as “more potent inhibitors against AR/AR-V7 transcriptional activity”.

Take `COC(=O)[C@@]12OC[C@]34[C@H]([C@@H](O)[C@@H]1O)[C@@]1(C)CC(=O)C(O)=C(C)[C@@H]1C[C@H]3OC(=O)[C@H](OC(=O)CC(C)C)[C@@H]24` [Bruceine A, bruceine A]: the activity at 0.1 µM was 19.5 ± 20.7% in test [1] and 5.7 ± 1% in test [2]. Moreover, the activity at 1 µM was determined as 13.5 ± 1.7% in test [1] (1 uM) and 3.6 ± 0.2% in test [2] (1 uM). For the same compound, the results for the activity at 10 µM in test [1] (10 uM) and in test [2] (10 uM) were 11 ± 2.5% and 2.8 ± 0.2%, respectively. In addition, the half-maximal inhibitory concentration (IC50) turned out to be 14.3 nM in test [1]; 9.45 nM in test [2]; 16.5 nM in test [3] (22Rv1, 72 h); 15 nM in test [4] (LNCaP). Besides, the “potency as inhibitor of AR/AR-V7 transcriptional activity compared with ailanthone” value in test [1] is recorded as “more potent inhibitors against AR/AR-V7 transcriptional activity”.

For `CC1=CC(=O)[C@@H](O)[C@]2(C)[C@H]3[C@@H](O)[C@H](O)[C@]4(CO)OC[C@@]35[C@@H](C[C@@H]12)OC(=O)[C@H](O)[C@]54O` [Yadanziolide A], the “MMTV-LUC activity (%) DHT−” value in test [1] (1 uM) turned out to be 54.1 ± 13.0%; in test [1] (10 uM) it was 8.0 ± 0.6%. Further, the “MMTV-LUC activity (%) DHT+” value in test [2] (1 uM) is 58.3 ± 10.9%; in test [2] (10 uM), 4.1 ± 0.2%.

With `C=C1[C@@H](O)[C@]2(O)OC[C@]34[C@H]2[C@@]2(C)[C@H](O)C(=O)C=C(C)[C@@H]2C[C@H]3OC(=O)[C@H](O)[C@@]14O` [Eurycomanone], the activity at 0.1 µM was found to be 128 ± 12% in test [1] and 108 ± 4.7% in test [2]. Besides, the activity at 1 µM in test [1] (1 uM) was 59.1 ± 7.6%; in test [2] (1 uM), 51.3 ± 4.6%. The values for the activity at 10 µM in test [1] (10 uM) and in test [2] (10 uM) were 17.7 ± 2.7% and 6.7 ± 0.5%, respectively.

Consider Bruceanic acid C, for which, in test [1] (10 uM), the “MMTV-LUC activity (%) DHT−” value is recorded as 68.5 ± 6.3%. Moreover, the “MMTV-LUC activity (%) DHT+” value in test [2] (10 uM) was 85.8 ± 14.2%.

Consider `COC(=O)[C@]12OC[C@]34[C@H]([C@@H](O)[C@@H]1O)[C@@]1(C)CC(=O)C(O)=C(C)[C@@H]1C[C@H]3OC(=O)[C@H](OC(=O)/C=C(\C)C(C)(C)OC(C)=O)[C@@H]24` [Bruceantinol], for which the figures for the activity at 1 µM in test [1] (1 uM) and in test [2] (1 uM) were 73.5 ± 11.9% and 119 ± 21.8%, respectively. Further, the activity at 10 µM in test [1] (10 uM) turned out to be 81.2 ± 62.1%; in test [2] (10 uM), 44.5 ± 2.1%.

Regarding `CCN(CC)Cc1cc(Nc2ccnc3cc(Cl)ccc23)ccc1O` [Amodiaquine dihydrochloride dihydrate], the activity at 10 µM in test [1] (10 uM) is 91.6 ± 2.9%; in test [2] (10 uM) it was 102 ± 4.3%.

For `CC(=O)O[C@H](CC=C(C)C)C1=CC(=O)c2c(O)ccc(O)c2C1=O` [Acetylshikonin], the activity at 1 µM is 103 ± 7.7% in test [1] (1 uM) and 113 ± 16.6% in test [2] (1 uM). Also, the activity at 10 µM turned out to be 38.6 ± 3.2% in test [1] (10 uM) and 17.7 ± 1.5% in test [2] (10 uM).

For the compound `COc1c(O)cc2c(c1O)C(=O)c1c(cc(C)c(O)c1OC)C2=O` [Aurantio-obtusin], the values for the activity at 10 µM in test [1] (10 uM) and in test [2] (10 uM) were 119 ± 27.4% and 124 ± 2.2%, respectively.

As to `C=C1CC[C@@H]2[C@](C)(CO)[C@H](O)CC[C@@]2(C)[C@@H]1C/C=C1/C(=O)OC[C@H]1O` [Andrographolide], the values for the activity at 10 µM in test [1] (10 uM) and in test [2] (10 uM) were 157 ± 4.3% and 196 ± 5%, respectively.

For the compound `CC[C@](C)(O)C(=O)O[C@H]1C(=O)O[C@@H]2C[C@H]3C(C)=CC(=O)[C@@H](O)[C@]3(C)[C@H]3[C@@]4(O)OC[C@]32[C@@H]1[C@@H](C)[C@H]4O` [(+)-Glaucarubinone], in test [1] (10 uM), the “MMTV-LUC activity (%) DHT−” value is listed as 107.6 ± 26.5%. Besides, the “MMTV-LUC activity (%) DHT+” value in test [2] (10 uM) is reported as 117.7 ± 3.5%.

For `CC1CCCCCC(=O)c2c(O)cc(O)cc2CC(=O)O1` (stereo not shown) [Curvularin], the activity at 10 µM in test [1] (10 uM) was 76.8 ± 3%; in test [2] (10 uM), 91.6 ± 9.4%.

`CC1CCCC=CC(=O)c2c(O)cc(O)cc2CC(=O)O1` (stereo not shown) [10,11-Dehydrocurvularin]: the “MMTV-LUC activity (%) DHT−” value in test [1] (1 uM) turned out to be 383.1 ± 24.6%; in test [1] (10 uM), 16.3 ± 2.5%. Also, the “MMTV-LUC activity (%) DHT+” value is recorded as 206.9 ± 15.0% in test [2] (1 uM) and 5.5 ± 0.6% in test [2] (10 uM).

`C=CC(C)(C)c1cc(/C=C/C(=O)c2ccc(O)cc2)c(OC)cc1O` [Licochalcone A]: in test [1] (10 uM), the “MMTV-LUC activity (%) DHT−” value amounted to 202.7 ± 7.1%. The “MMTV-LUC activity (%) DHT+” value in test [2] (10 uM) is recorded as 235.6 ± 0.2%.

The record behind these values is patent US12295938B2, “Composition for treating castration-resistant prostate cancer, comprising quassinoids” (SAMSUNG LIFE PUBLIC WELFARE FOUNDATION, priority 2019, dated 2025).
